Source: US10336749B2, “Method for the preparation of (4S)-4-(4-cyano-2-methoxyphenyl)-5-ethoxy-2,8-dimethyl-1,4-dihydro-1-6-naphthyridine-3-carboxamide and the purification thereof for use as an active pharmaceutical ingredient” (BAYER PHARMA AKTIENGESELLSCHAFT, priority 2015, dated 2019)

What was measured:
[1] = Storage stability of crystalline polymorph I; format: physicochemical
[2] = Stability and moisture absorption: storage at 85% and 97% rel. humidity, evaluated by DSC, TGA and XRPD; format: physicochemical; settings: 25° C.; for mass change: after 12 months
Protocol: Stability and Moisture Absorption Samples of compound of the formula (I) in crystalline form of polymorph I were stored at 85% and 97% rel. humidity (25° C.). The samples were evaluated after 12 months by DSC, TGA and XRPD. After 12 months, a mass change of <0.1% is observed in both cases. […] According to DSC, TGA and XRPD, no difference exists in compound of the formula (I) in crystalline form of polymorph I.

[3] = 85% and 97% rel. humidity, 12 months

storage time without any problem ([1]; crystalline form of polymorph I): > 2 years
stability properties ([1]; even at high atmospheric humidity): very good stability properties
absorption of water [2, 3]: no significant absorption of water
difference according to DSC, TGA and XRPD after storage [2, 3]: no difference
mass change ([2]; stored at 85% rel. humidity): < 0.1%
mass change ([2]; stored at 97% rel. humidity): < 0.1%
Compound: CCOc1ncc(C)c2c1[C@H](c1ccc(C#N)cc1OC)C(C(N)=O)=C(C)N2 [(4S)-4-(4-Cyano-2-methoxyphenyl)-5-ethoxy-2,8-dimethyl-1,4-dihydro-1,6-naphthyridine-3-carboxamide]
